Molecules are shown by their SMILES.

In general, IC50 refers to the point on the concentration scale where inhibition reaches its midpoint.

T1 sequence (Q93009 208-560 C315A): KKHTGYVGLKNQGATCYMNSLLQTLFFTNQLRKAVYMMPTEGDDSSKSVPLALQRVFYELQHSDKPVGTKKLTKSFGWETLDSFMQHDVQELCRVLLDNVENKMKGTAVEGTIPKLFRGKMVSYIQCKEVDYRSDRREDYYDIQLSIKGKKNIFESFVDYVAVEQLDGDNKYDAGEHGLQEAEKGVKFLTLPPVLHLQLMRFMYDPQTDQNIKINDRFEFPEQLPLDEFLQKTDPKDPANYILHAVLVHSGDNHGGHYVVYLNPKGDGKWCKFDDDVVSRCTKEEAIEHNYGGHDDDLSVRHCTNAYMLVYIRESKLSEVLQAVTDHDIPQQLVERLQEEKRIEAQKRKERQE

The test addresses T1, His-His-USP7 (aa208-560, |C315A|) (Homo sapiens, UniProt Q93009, C315A).
T1 construct: His-His-USP7 (aa208-560, |C315A|); His-His (N)
The experiment in a line: Evaluation of the inhibition of USP7 by the Fluorescence Intensity (FLINT) readings. It counts as biochemical. To be noted: 0.25 nM His-His-USP7, compound incubated 60 minutes at 30° C., 500 nM Ubiquitin-Rhodamine-110 substrate; 50% reduction in kinetic rate. The procedure: USP7 activity was measured using Rhodamine-110 c-terminal labelled Ubiquitin as a substrate (UbiQ Bio). Incubation with USP7 results in the release of Rhodamine-110 leading to an increase in fluorescence which can be used in the continuous measurement of USP7 activity.
The USP7 reactions were performed in a 50 μL volume, in 384 well black solid low binding plates (Corning #3575). The reaction buffer consisted of 100 mM Bicine pH 8.0, 0.01% TritonX100, 1 mM TCEP, and 10% DMSO.
0.25 nM His-His-USP7 (aa208-560, |C315A|) was incubated with compound (final concentration 10% DMSO) for 60 minutes at 30° C. The reaction was then initiated by the addition of 500 nM Ubiquitin-Rhodamme-110 substrate and the plate read every 3 minutes for 21 minutes to measure the release of Rhodamine-110. Fluorescence Intensity (FLINT) readings were measured using a […] plate reader (Ex.485 nm, Em.535 nm).
The inhibition of increasing doses of compound was expressed as a percentage reduction in kinetic rate compared to the kinetic rates established between ‘DMSO only’ and ‘total inhibition’ controls (no USP7). The inhibitory concentrations that gave a 50% reduction in kinetic rate (IC50) were determined, from 11-point dose response cures, in XL-Fit using a 4-Parameter Logistic Model 205 (Sigmoidal Dose-Response Model).
The compound `Nc1c(Oc2ccc(F)cc2)ncn(CC2(O)CCN(C(=O)[C@@H]3CCC(F)(F)C[C@H]3c3ccco3)CC2)c1=O` (relative stereo) [Example 88, 5-amino-3-({1-[(1,2-trans)-4,4-difluoro-2-(furan-2-yl)cyclohexane-1-carbonyl]-4-hydroxypiperidin-4-yl}methyl)-6-(4-fluorophenoxy)pyrimidin-4(3H)-one] registered a half-maximal inhibitory concentration (IC50) of 111 nM.

On to `C#C[C@@]1(O)CC[C@@H](C(=O)N2CCC(O)(Cn3cnc(Oc4ccc(F)cc4)c(N)c3=O)CC2)[C@H](c2ccccc2)C1` (relative stereo) [Example 91, rel-5-amino-3-([1-[(1R,2R,4R)-4-ethynyl-4-hydroxy-2-phenyl-cyclohexanecarbonyl]-4-hydroxypiperidin-4-yl]methyl)-6-(4-fluorophenoxy)-3,4-dihydropyrimidin-4-one], for which 289 nM corresponded to half-maximal inhibition (IC50).

Regarding `Nc1c(Oc2ccc(F)cc2)ncn(CC2(O)CCN(C(=O)[C@@H]3CC[C@](O)(Cc4cnccn4)C[C@H]3c3ccccc3)CC2)c1=O` (relative stereo) [Example 98, rel-5-amino-6-(4-fluorophenoxy)-3-[(4-hydroxy-1-{([(1R,2R,4R)-4-hydroxy-2-phenyl-4-(pyrazin-2-ylmethyl)cyclohexyl]carbonyl}piperidin-4-yl)methyl]pyrimidin-4-one], half-maximal inhibition (IC50) was put at 223 nM.

As to `Nc1c(Oc2ccc(F)cc2)ncn(CC2(O)CCN(C(=O)[C@@H]3CC[C@@](O)(Cc4ccc(F)cc4)C[C@H]3c3ccccc3)CC2)c1=O` (relative stereo) [Example 100, rel-5-amino-6-(4-fluorophenoxy)-3-[(1-{[(1R,2R,4S)-4-[(4-fluorophenyl)methyl]-4-hydroxy-2-phenylcyclohexyl]carbonyl}-4-hydroxypiperidin-4-yl)methyl]pyrimidin-4-one], the IC50 was found to be 244 nM.

In the case of `Cn1ccnc1C[C@@]1(O)CC[C@@H](C(=O)N2CCC(O)(Cn3cnc(Oc4ccc(F)cc4)c(N)c3=O)CC2)[C@H](c2ccccc2)C1` (relative stereo) [Example 101, rel-5-amino-6-(4-fluorophenoxy)-3-({4-hydroxy-1-[(1R,2R,4R)-4-hydroxy-4-[(1-methyl-1H-imidazol-2-yl)methyl]-2-phenyl-cyclohexanecarbonyl]piperidin-4-yl)}methyl)-3,4-dihydropyrimidin-4-one], half-maximal inhibition (IC50) required 363 nM.

Turning to `Nc1c(Oc2ccc(F)cc2)ncn(CC2(O)CCN(C(=O)[C@@H]3CC[C@](O)(c4ccccc4)C[C@H]3c3ccccc3)CC2)c1=O` (relative stereo) [Example 102, rel-5-amino-6-(4-fluorophenoxy)-3-[(4-hydroxy-1-{[(1R,2R,4R)-4-hydroxy-2,4-diphenylcyclohexyl]carbonyl}piperidin-4-yl)methyl]pyrimidin-4-one], the half-inhibitory concentration (IC50) came to 461 nM.

`Nc1c(Oc2ccc(F)cc2)ncn(CC2(O)CCN(C(=O)[C@@H]3CC[C@@](O)(c4ccccc4)C[C@H]3c3ccccc3)CC2)c1=O` (relative stereo) [Example 103, rel-5-amino-6-(4-fluorophenoxy)-3-[(4-hydroxy-1-{[(1R,2R,4S)-4-hydroxy-2,4-diphenylcyclohexyl]carbonyl}piperidin-4-yl)methyl]pyrimidin-4-one] displayed an IC50 of 312 nM.

In turn, `CC1(F)CC[C@@H](C(=O)N2CCC(O)(Cn3cnc(-c4ccc(F)cc4)c(N)c3=O)CC2)[C@H](c2ccccc2)C1` (relative stereo) [Example 127, rel-5-amino-3-[(1-{[(1R,2R)-4-fluoro-4-methyl-2-phenylcyclohexyl]carbonyl}-4-hydroxypiperidin-4-yl)methyl]-6-(4-fluorophenyl)pyrimidin-4-one] returned an IC50 of 46.6 nM.

On to `Nc1c(Oc2ccccc2F)ncn(CC2(O)CCN(C(=O)[C@@H]3CCC(F)(F)C[C@H]3c3ccccc3)CC2)c1=O` [Example 2, 5-amino-3-({1-[(1R,2R)-4,4-difluoro-2-phenylcyclohexane-1-carbonyl]-4-hydroxypiperidin-4-yl}methyl)-6-(2-fluorophenoxy)pyrimidin-4(3H)-one], for which inhibition was half-maximal at 304 nM (IC50).

As to `COc1cccc(Oc2ncn(CC3(O)CCN(C(=O)[C@@H]4CCC(F)(F)C[C@H]4c4ccccc4)CC3)c(=O)c2N)c1` [Example 4, 5-amino-3-({1-[(1R,2R)-4,4-difluoro-2-phenylcyclohexane-1-carbonyl]-4-hydroxypiperidin-4-yl}methyl)-6-(3-methoxyphenoxy)pyrimidin-4(3H)-one], the IC50 came to 93.8 nM.

As to `Nc1c(Oc2cccc(F)c2)ncn(CC2(O)CCN(C(=O)[C@@H]3CCC(F)(F)C[C@H]3c3ccccc3)CC2)c1=O` [Example 6, 5-amino-3-({1-[(1R,2R)-4,4-difluoro-2-phenylcyclohexane-1-carbonyl]-4-hydroxypiperidin-4-yl}methyl)-6-(3-fluorophenoxy)pyrimidin-4(3H)-one], the IC50 amounted to 183 nM.

The compound `COc1cc(OC)cc(Oc2ncn(CC3(O)CCN(C(=O)[C@@H]4CCC(F)(F)C[C@H]4c4ccccc4)CC3)c(=O)c2N)c1` [Example 7, 5-amino-3-({1-[(1R,2R)-4,4-difluoro-2-phenylcyclohexane-1-carbonyl]-4-hydroxypiperidin-4-yl}methyl)-6-(3,5-dimethoxyphenoxy)pyrimidin-4(3H)-one] came in with a half-maximal inhibitory concentration (IC50) of 181 nM.

In the case of `Nc1c(Oc2cc(F)cc(F)c2)ncn(CC2(O)CCN(C(=O)[C@@H]3CCC(F)(F)C[C@H]3c3ccccc3)CC2)c1=O` [Example 8, 5-amino-6-(3,5-difluorophenoxy)-3-({1-[(1R,2R)-4,4-difluoro-2-phenylcyclohexane-1-carbonyl]-4-hydroxypiperidin-4-yl}methyl)pyrimidin-4(3H)-one], the IC50 was found to be 472 nM.

As to `Nc1c(Oc2ccccc2)ncn(C[C@]2(O)CCN(C(=O)[C@@H]3CCC(F)(F)C[C@H]3c3ccccc3)CC2(F)F)c1=O` [Example 10, 5-amino-3-[[(4R)-1-[(1R,2R)-4,4-difluoro-2-phenyl-cyclohexanecarbonyl]-3,3-difluoro-4-hydroxy-4-piperidyl]methyl]-6-phenoxy-pyrimidin-4-one], the half-inhibitory concentration (IC50) was found to be 4320 nM.

The compound `O=C([C@@H]1CCC(F)(F)C[C@H]1c1ccccc1)N1CCC(O)(Cn2cnc(Oc3ccccc3)c(NCC(F)(F)F)c2=O)CC1` [Example 17, 3-({1-[(1R,2R)-4,4-difluoro-2-phenylcyclohexane-1-carbonyl]-4-hydroxypiperidin-4-yl}methyl)-6-phenoxy-5-[(2,2,2-trifluoroethyl)amino]pyrimidin-4(3H)-one] showed an IC50 of 1250 nM.

For `Nc1c(Oc2cccc(OC(F)(F)F)c2)ncn(CC2(O)CCN(C(=O)[C@@H]3CCC(F)(F)C[C@H]3c3ccccc3)CC2)c1=O` [Example 18, 5-amino-3-({1-[(1R,2R)-4,4-difluoro-2-phenylcyclohexane-1-carbonyl]-4-hydroxypiperidin-4-yl}methyl)-6-[3-(trifluoromethoxy)phenoxy]pyrimidin-4(3H)-one], half-maximal inhibition (IC50) was put at 247 nM.

`Nc1c(Oc2cccc(S(F)(F)(F)(F)F)c2)ncn(CC2(O)CCN(C(=O)[C@@H]3CCC(F)(F)C[C@H]3c3ccccc3)CC2)c1=O` [Example 21, 5-amino-3-({1-[(1R,2R)-4,4-difluoro-2-phenylcyclohexane-1-carbonyl]-4-hydroxypiperidin-4-yl}methyl)-6-[3-(pentafluoro-λ^6-sulfanyl)phenoxy]pyrimidin-4(3H)-one] returned a 50% inhibitory concentration (IC50) of 716 nM.

`Nc1c(Oc2cccc(C(F)(F)F)c2)ncn(CC2(O)CCN(C(=O)[C@@H]3CCC(F)(F)C[C@H]3c3ccccc3)CC2)c1=O` [Example 22, 5-amino-3-({1-[(1R,2R)-4,4-difluoro-2-phenylcyclohexane-1-carbonyl]-4-hydroxypiperidin-4-yl}methyl)-6-[3-(trifluoromethyl)phenoxy]pyrimidin-4(3H)-one] returned an IC50 of 264 nM.

As to `N#Cc1cccc(Oc2ncn(CC3(O)CCN(C(=O)[C@@H]4CCC(F)(F)C[C@H]4c4ccccc4)CC3)c(=O)c2N)c1` [Example 25, 3-{[5-amino-1-({1-[(1R,2R)-4,4-difluoro-2-phenylcyclohexane-1-carbonyl]-4-hydroxypiperidin-4-yl}methyl)-6-oxo-1,6-dihydropyrimidin-4-yl]oxy}benzonitrile], the IC50 is 203 nM.

With `COC(=O)c1cccc(Oc2ncn(CC3(O)CCN(C(=O)[C@@H]4CCC(F)(F)C[C@H]4c4ccccc4)CC3)c(=O)c2N)c1` [Example 27, methyl 3-{[5-amino-1-({1-[(1R,2R)-4,4-difluoro-2-phenylcyclohexane-1-carbonyl]-4-hydroxypiperidin-4-yl}methyl)-6-oxo-1,6-dihydropyrimidin-4-yl]oxy}benzoate], the IC50 was found to be 85 nM.

`Nc1c(Oc2ccc(CCCO)cc2)ncn(CC2(O)CCN(C(=O)[C@@H]3CCC(F)(F)C[C@H]3c3ccccc3)CC2)c1=O` [Example 29, 5-amino-3-({1-[(1R,2R)-4,4-difluoro-2-phenylcyclohexane-1-carbonyl]-4-hydroxypiperidin-4-yl}methyl)-6-[4-(3-hydroxypropyl)phenoxy]pyrimidin-4(3H)-one] registered an IC50 of 175 nM.
